Results on 23 compounds are retold here after US12534452B2, “N-(1H-imidazol-2-yl)benzamide compound and pharmaceutical composition comprising the same as active ingredient” (KAINOS MEDICINE, INC., priority 2019, dated 2026).

In the assay the target is IRAK4 (Homo sapiens (Human), UniProt Q9NWZ3). As to the kind of experiment: In vitro IRAK4 phosphorylation activity assay. In kind it is biochemical. As to conditions: [γ-33P]-ATP, myelin basic protein substrate, 40 minutes at room temperature; categories. In a few lines: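 Radiometric filter-binding assay, no compound–kinase preincubation; 8 mM MOPS pH 7.0, 0.2 mM EDTA, 10 mM Mg acetate, 0.33 mg/mL myelin basic protein substrate, [γ-33P]-ATP. Reaction 40 min at room temperature, stopped with phosphoric acid, scintillation counting; IC50 reported in categories.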
IRAK4, sequence (Q9NWZ3 whole entry): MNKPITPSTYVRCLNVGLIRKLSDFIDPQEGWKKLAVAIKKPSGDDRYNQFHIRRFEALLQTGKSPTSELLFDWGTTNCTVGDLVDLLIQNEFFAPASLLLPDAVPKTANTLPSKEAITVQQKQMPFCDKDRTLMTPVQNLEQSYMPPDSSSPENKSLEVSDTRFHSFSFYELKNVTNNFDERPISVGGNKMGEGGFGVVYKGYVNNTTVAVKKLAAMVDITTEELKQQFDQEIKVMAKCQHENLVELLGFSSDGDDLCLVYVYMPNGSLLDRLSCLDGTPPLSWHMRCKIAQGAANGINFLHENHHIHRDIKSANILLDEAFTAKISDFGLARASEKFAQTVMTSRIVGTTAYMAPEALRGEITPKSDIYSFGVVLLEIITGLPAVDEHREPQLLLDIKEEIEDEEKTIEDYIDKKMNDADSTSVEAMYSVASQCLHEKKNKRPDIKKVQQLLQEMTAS
What is called IC50 is the concentration that inhibits the measured activity by half. A higher IC50 goes with weaker potency. As for `O=C(CCCCCc1cn(-c2ccccc2)c(NC(=O)c2cccc(-c3cn[nH]c3)c2)n1)Nc1ccccc1` [Example 90, N-(4-(6-oxo-6-(phenylamino)hexyl)-1-phenyl-1H-imidazol-2-yl)-3-(1H-pyrazol-4-yl)benzamide], the IC50 was under 50 nM. As for `O=C(Nc1nc(CCC(=O)N2CCCC[C@@H]2C(F)(F)F)cn1-c1ccccc1)c1cccc(-c2cn[nH]c2)c1` [Example 39, (R)—N-(4-(3-oxo-3-(2-(trifluoromethyl)piperidin-1-yl)propyl)-1-phenyl-1H-imidazol-2-yl)-3-(1H-pyrazol-4-yl)benzamide], the figure is 50 to 100 nM; as for `O=C(Nc1nc(CCC(=O)N2CCOCC2)cn1-c1ccccc1)c1cccc(-c2cn[nH]c2)c1` [Example 11, N-(4-(3-morpholino-3-oxopropyl)-1-phenyl-1H-imidazol-2-yl)-3-(1H-pyrazol-4-yl)benzamide], under 50 nM; as for `O=C(Nc1nc(CCCCCO)cn1-c1ccccc1)c1cccc(-c2cn[nH]c2)c1` [Example 116, N-(4-(5-hydroxypentyl)-1-phenyl-1H-imidazol-2-yl)-3-(1H-pyrazol-4-yl)benzamide], under 50 nM.

As for `O=C(Nc1nc(CCCCCC(=O)N2CCCCC2)cn1-c1ccccc1)c1cccc(-c2ccc3[nH]nnc3c2)c1` [Example 242, 3-(1H-benzo[d][1,2,3]triazol-5-yl)-N-(4-(6-oxo-6-(piperidin-1-yl)hexyl)-1-phenyl-1H-imidazol-2-yl)benzamide], the half-maximal inhibitory concentration (IC50) was under 50 nM. The compound `COC[C@@H]1CCCN1C(=O)CCc1cn(-c2ccccc2)c(NC(=O)c2cccc(-c3cn[nH]c3)c2)n1` [Example 19, (S)—N-(4-(3-(2-(methoxymethyl)pyrrolidin-1-yl)-3-oxopropyl)-1-phenyl-1H-imidazol-2-yl)-3-(1H-pyrazol-4-yl)benzamide] yielded a 50% inhibitory concentration (IC50) of 50 to 100 nM. The result for `O=C(CCc1cn(-c2cccc(Cl)c2)c(NC(=O)c2cccc(-c3cn[nH]c3)c2)n1)Nc1ccccc1` [Example 293, N-(1-(3-chlorophenyl)-4-(3-oxo-3-(phenylamino)propyl)-1H-imidazol-2-yl)-3-(1H-pyrazol-4-yl)benzamide] reads under 50 nM; that for `O=C(CCc1cn(Cc2ccccc2)c(NC(=O)c2cccc(-c3cn[nH]c3)c2)n1)Nc1ccccc1` [Example 292, N-(1-benzyl-4-(3-oxo-3-(phenylamino)propyl)-1H-imidazol-2-yl)-3-(1H-pyrazol-4-yl)benzamide], over 100 nM.

Take `O=C(CCCc1cn(-c2ccccc2)c(NC(=O)c2cccc(-c3ccc4ncsc4c3)c2)n1)NC1CC1` [Example 279, 3-(benzo[d]thiazol-6-yl)-N-(4-(4-(cyclopropylamino)-4-oxobutyl)-1-phenyl-1H-imidazol-2-yl)benzamide]: the IC50 is under 50 nM.

With `Cn1cc(-c2cccc(C(=O)Nc3nc(CCCCC(=O)NCCN4CCOCC4)cn3-c3ccccc3)c2)cn1` [Example 198, 3-(1-methyl-1H-pyrazol-4-yl)-N-(4-(5-((2-morpholinoethyl)amino)-5-oxopentyl)-1-phenyl-1H-imidazol-2-yl)benzamide], the IC50 is under 50 nM. As for `CC(C)OC(=O)CCCc1cn(-c2ccccc2)c(NC(=O)c2cccc(-c3cn[nH]c3)c2)n1` [Example 70, isopropyl 4-(2-(3-(1H-pyrazol-4-yl)benzamido)-1-phenyl-1H-imidazol-4-yl)butanoate], the figure is under 50 nM; as for `Nc1n[nH]cc1-c1cccc(C(=O)Nc2nc(CCC(=O)Nc3ccccc3)cn2-c2ccccc2)c1` [Example 2, 3-(3-amino-1H-pyrazol-4-yl)-N-(4-(3-oxo-3-(phenylamino)propyl)-1-phenyl-1H-imidazol-2-yl)benzamide], over 100 nM; as for `Cn1cc(-c2cccc(C(=O)Nc3nc(CCCC(=O)N4CCC(N)CC4)cn3-c3ccccc3)c2)cn1` [Example 209, N-(4-(4-(4-aminopiperidin-1-yl)-4-oxobutyl)-1-phenyl-1H-imidazol-2-yl)-3-(1-methyl-1H-pyrazol-4-yl)benzamide], under 50 nM. Take `Cn1cc(-c2cccc(C(=O)Nc3nc(CCCCC(=O)NC4CCOCC4)cn3-c3ccccc3)c2)cn1` [Example 197, 3-(1-methyl-1H-pyrazol-4-yl)-N-(4-(5-oxo-5-((tetrahydro-2H-pyran-4-yl)amino)pentyl)-1-phenyl-1H-imidazol-2-yl)benzamide]: the IC50 was under 50 nM. As for `O=C(Nc1nc(CCCCCCN2CCCCC2)cn1-c1ccccc1)c1cccc(-c2cn[nH]c2)c1` [Example 102, N-(1-phenyl-4-(6-(piperidin-1-yl)hexyl)-1H-imidazol-2-yl)-3-(1H-pyrazol-4-yl)benzamide], the figure is under 50 nM. The compound `O=C(CCc1cn(-c2ccccc2)c(NC(=O)c2cccc(-c3c[nH]nc3C(F)(F)F)c2)n1)Nc1ccccc1` [Example 3, N-(4-(3-oxo-3-(phenylamino)propyl)-1-phenyl-1H-imidazol-2-yl)-3-(3-(trifluoromethyl)-1H-pyrazol-4-yl)benzamide] came in with an IC50 of over 100 nM. The compound `Cn1cc(-c2cccc(C(=O)Nc3nc(CCCC(=O)N4CCC[C@H](C(=O)O)C4)cn3-c3ccccc3)c2)cn1` [Example 207, (S)-1-(4-(2-(3-(1-methyl-1H-pyrazol-4-yl)benzamido)-1-phenyl-1H-imidazol-4-yl)butanoyl)piperidine-3-carboxylic acid] returned an IC50 of under 50 nM. `O=C(CCc1cn(-c2ccccc2)c(NC(=O)c2cccc(-c3c[nH]nc3[N+](=O)[O-])c2)n1)Nc1ccccc1` [Example 1, 3-(3-nitro-1H-pyrazol-4-yl)-N-(4-(3-oxo-3-(phenylamino)propyl)-1-phenyl-1H-imidazol-2-yl)benzamide] gave a half-inhibitory concentration (IC50) of over 100 nM. `Cn1cc(-c2cccc(C(=O)Nc3nc(CCCC(=O)NCCCN4CCCCC4)cn3-c3ccccc3)c2)cn1` [Example 158, 3-(1-methyl-1H-pyrazol-4-yl)-N-(4-(4-oxo-4-((3-(piperidin-1-yl)propyl)amino)butyl)-1-phenyl-1H-imidazol-2-yl)benzamide] displayed a half-maximal inhibitory concentration (IC50) of under 50 nM. The compound `O=C(O)Cc1cn(-c2ccccc2)c(NC(=O)c2cccc(-c3cn[nH]c3)c2)n1` [Example 43, 2-(2-(3-(1H-pyrazol-4-yl)benzamido)-1-phenyl-1H-imidazol-4-yl)acetic acid] displayed an IC50 of over 100 nM. The compound `Cn1cc(-c2cccc(C(=O)Nc3nc(CCCC(=O)NC4CCC(O)CC4)cn3-c3ccccc3)c2)cn1` [Example 156, N-(4-(4-(((1R,4R)-4-hydroxycyclohexyl)amino)-4-oxobutyl)-1-phenyl-1H-imidazol-2-yl)-3-(1-methyl-1H-pyrazol-4-yl)benzamide] yielded a half-inhibitory concentration (IC50) of under 50 nM.

With `C[C@H]1CCCCN1C(=O)CCCCCc1cn(-c2ccccc2)c(NC(=O)c2cccc(-c3cn[nH]c3)c2)n1` [Example 95, (S)—N-(4-(6-(2-methylpiperidin-1-yl)-6-oxohexyl)-1-phenyl-1H-imidazol-2-yl)-3-(1H-pyrazol-4-yl)benzamide], the concentration for half-maximal inhibition (IC50) is under 50 nM. As for `COC[C@H]1CCCN1NC(=O)CCCCCc1cn(-c2ccccc2)c(NC(=O)c2cccc(-c3cn[nH]c3)c2)n1` [Example 99, (R)—N-(4-(6-((2-(methoxymethyl)pyrrolidin-1-yl)amino)-6-oxohexyl)-1-phenyl-1H-imidazol-2-yl)-3-(1H-pyrazol-4-yl)benzamide], the figure is under 50 nM.
